Literature values in patent US20130267526A1, “HETEROCYCLIC COMPOUNDS AND THEIR USES” (Amgen, Inc., priority 2010, published 2013).

Key:
[1] = test system: ovalbumin-induced airway inflammation
[2] = test system: protein kinases
[3] = test system: passive cutaneous anaphylaxis (PCA); details: absence of functional delta (IC 87114 and p110δ D910A mice)
[4] = biological target: T1, p110δ (Homo sapiens, UniProt O00329)
T1 sequence (O00329 1-1044): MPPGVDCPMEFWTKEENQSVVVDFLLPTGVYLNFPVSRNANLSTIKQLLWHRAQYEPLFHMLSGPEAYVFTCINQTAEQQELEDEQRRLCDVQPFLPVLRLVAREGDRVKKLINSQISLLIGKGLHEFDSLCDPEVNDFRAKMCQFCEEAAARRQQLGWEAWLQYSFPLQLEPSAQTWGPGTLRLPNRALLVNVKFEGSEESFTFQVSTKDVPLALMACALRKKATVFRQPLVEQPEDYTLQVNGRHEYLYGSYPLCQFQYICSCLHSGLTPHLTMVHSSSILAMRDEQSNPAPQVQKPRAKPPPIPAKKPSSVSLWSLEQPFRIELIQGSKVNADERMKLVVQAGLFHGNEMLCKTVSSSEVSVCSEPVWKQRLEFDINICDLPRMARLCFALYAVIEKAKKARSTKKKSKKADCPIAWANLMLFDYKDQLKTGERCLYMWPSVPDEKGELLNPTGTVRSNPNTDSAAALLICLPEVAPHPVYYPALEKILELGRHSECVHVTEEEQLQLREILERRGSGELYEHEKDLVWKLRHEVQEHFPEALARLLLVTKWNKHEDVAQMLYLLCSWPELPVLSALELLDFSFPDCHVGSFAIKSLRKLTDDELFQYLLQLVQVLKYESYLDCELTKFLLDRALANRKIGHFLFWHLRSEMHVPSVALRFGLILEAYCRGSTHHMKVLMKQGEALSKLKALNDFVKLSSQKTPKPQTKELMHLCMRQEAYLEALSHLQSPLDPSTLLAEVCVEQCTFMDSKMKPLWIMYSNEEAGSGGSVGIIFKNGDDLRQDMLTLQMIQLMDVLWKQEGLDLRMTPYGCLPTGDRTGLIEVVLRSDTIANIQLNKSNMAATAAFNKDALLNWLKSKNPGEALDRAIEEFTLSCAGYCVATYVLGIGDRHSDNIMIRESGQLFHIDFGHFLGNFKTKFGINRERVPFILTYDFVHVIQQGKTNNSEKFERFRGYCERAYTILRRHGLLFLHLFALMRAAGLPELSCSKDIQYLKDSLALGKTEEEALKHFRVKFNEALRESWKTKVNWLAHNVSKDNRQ

[5] = test system: model of systemic lupus erythematosis; details: in vivo
[6] = test system: mouse model of rheumatoid arthritis; details: in vivo

SMILES	inflammation and disease in murine asthma model [1]	activity against any protein kinases tested [2]	passive cutaneous anaphylaxis (PCA) [3]	inhibition of p110δ [4]	onset of disease in a model of systemic lupus erythematosis [5]	efficacy in a mouse model of rheumatoid arthritis [6]
Cc1ccccc1-n1c(Cn2cnc3c(N)ncnc32)nc2cccc(C)c2c1=O [IC87114]	significantly ameliorate	no activity	significantly reduced	high nanomolar range (triple digit)	–	–
O=C1NC(=O)/C(=C\c2ccc3nccnc3c2)S1 [AS 605240]	–	–	–	–	delay onset of disease	efficacious
